What all share (format): binding
In test [1] the target is T1, hTMPRSS2 (Homo sapiens, UniProt O15393).
T1 construct: gene TMPRSS2; purified protein; immobilised on CM5 chip
Kind of test: SPR (CM5 chip, hTMPRSS2 immobilised). The text has this:
SPR (CM5 chip, hTMPRSS2 immobilised) on hTMPRSS2 | Through SPR assay, we validated that tetrandrine could also bind to TMPRSS2

Test [2] concerns the target T2, HCoV-229E Spike (Human coronavirus 229E, UniProt P15423).
T2 construct: gene S
The test can be described thus: SPR (Reichert4, CM5 chip, Spike immobilised). The text has this:
SPR (Reichert4, CM5 chip, Spike immobilised) on HCoV-229E Spike | we observed its interaction with the Spike proteins of various coronaviruses in vitro (Figure 5C)

Test [3] concerns the target T3, HCoV-OC43 Spike (Human coronavirus OC43, UniProt P36334).
T3 construct: gene S
The test can be described thus: SPR (Reichert4, CM5 chip, Spike immobilised). The text has this: SPR (Reichert4, CM5 chip, Spike immobilised) on HCoV-OC43 Spike | we observed its interaction with the Spike proteins of various coronaviruses in vitro (Figure 5C)

Usually Kd stands for the free concentration of one partner at which half of the binding sites on the other are occupied at equilibrium, for simple one-to-one binding. A lower Kd goes with tighter binding.

T1 sequence (O15393 whole entry): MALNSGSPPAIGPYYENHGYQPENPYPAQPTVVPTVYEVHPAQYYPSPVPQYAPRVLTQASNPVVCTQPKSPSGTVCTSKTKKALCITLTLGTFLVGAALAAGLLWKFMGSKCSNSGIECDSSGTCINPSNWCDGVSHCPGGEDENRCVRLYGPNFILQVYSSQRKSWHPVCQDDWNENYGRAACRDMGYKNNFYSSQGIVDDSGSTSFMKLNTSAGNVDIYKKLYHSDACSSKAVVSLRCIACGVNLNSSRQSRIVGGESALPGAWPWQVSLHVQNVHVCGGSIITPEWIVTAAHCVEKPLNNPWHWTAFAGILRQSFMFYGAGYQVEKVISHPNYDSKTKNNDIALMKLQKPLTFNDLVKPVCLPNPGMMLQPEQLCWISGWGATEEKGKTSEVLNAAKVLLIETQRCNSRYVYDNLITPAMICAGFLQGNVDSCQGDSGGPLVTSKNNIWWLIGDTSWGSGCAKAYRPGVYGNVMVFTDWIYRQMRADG
T3 sequence (P36334 14-1353): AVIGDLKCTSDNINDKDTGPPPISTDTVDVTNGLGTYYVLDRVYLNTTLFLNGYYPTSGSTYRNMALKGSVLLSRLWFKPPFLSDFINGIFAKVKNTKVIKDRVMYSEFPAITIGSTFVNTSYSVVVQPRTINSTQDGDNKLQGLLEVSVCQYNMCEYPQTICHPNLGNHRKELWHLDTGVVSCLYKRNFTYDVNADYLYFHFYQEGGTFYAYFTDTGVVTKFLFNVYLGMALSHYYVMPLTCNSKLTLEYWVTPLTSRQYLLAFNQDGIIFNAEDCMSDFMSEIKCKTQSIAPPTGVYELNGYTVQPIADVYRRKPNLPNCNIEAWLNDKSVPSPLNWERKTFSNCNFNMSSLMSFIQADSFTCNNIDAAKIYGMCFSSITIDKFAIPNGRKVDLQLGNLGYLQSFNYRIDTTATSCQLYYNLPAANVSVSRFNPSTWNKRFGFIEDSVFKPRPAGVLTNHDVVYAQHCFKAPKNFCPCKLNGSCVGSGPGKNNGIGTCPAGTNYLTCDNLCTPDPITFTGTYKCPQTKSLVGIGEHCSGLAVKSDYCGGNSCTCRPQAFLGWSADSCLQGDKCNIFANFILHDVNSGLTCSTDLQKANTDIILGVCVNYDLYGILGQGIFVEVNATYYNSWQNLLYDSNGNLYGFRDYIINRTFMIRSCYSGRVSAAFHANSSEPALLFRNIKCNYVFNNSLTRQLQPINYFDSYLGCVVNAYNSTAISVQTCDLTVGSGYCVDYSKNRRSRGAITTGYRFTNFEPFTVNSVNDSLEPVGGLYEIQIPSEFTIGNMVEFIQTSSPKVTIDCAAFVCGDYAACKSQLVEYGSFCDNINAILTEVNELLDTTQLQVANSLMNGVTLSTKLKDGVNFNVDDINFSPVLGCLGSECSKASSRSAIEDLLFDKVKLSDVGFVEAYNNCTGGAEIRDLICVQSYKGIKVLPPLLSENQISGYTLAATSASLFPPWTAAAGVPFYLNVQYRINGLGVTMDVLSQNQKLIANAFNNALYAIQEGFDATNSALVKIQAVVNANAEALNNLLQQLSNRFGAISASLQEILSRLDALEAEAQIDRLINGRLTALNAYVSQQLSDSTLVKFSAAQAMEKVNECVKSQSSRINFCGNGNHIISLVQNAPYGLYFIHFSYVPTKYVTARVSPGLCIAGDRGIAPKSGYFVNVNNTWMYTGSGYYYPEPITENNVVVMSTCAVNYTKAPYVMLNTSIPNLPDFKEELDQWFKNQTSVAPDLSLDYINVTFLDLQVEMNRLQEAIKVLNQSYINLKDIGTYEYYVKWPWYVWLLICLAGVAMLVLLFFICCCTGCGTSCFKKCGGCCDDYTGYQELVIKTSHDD
T2 sequence (P15423 16-1173): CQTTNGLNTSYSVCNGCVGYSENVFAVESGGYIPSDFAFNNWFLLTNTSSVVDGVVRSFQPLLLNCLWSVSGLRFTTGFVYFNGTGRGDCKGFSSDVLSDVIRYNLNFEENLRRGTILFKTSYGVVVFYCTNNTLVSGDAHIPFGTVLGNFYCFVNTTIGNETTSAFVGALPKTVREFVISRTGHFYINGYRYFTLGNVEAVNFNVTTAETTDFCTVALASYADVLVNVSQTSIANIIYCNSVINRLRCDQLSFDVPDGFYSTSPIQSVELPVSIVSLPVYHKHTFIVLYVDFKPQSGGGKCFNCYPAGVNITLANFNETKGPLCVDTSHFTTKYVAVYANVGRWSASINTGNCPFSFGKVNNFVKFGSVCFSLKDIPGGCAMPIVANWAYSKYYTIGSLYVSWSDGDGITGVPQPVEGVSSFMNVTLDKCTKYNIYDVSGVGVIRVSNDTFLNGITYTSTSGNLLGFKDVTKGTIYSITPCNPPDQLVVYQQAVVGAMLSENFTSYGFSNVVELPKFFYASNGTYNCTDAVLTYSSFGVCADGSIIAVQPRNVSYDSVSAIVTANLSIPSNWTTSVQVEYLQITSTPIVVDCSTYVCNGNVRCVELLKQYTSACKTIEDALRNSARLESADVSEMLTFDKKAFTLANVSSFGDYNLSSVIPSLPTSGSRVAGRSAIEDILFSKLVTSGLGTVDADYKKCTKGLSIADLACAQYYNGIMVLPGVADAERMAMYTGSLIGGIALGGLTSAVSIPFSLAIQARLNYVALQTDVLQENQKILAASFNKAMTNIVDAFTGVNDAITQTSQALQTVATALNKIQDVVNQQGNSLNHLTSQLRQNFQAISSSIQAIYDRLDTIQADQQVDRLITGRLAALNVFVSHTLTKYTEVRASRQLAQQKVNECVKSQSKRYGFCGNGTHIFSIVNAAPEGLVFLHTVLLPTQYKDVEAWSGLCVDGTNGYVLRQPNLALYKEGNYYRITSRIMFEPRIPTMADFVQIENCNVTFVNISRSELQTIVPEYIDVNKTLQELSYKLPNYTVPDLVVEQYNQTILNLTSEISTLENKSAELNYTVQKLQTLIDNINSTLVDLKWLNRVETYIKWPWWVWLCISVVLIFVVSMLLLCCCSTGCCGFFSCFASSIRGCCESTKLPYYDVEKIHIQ

In the case of `COc1ccc2cc1Oc1ccc(cc1)C[C@H]1c3cc(c(OC)cc3CCN1C)Oc1c(OC)c(OC)cc3c1[C@H](C2)N(C)CC3` [tetrandrine], the equilibrium dissociation constant (Kd) in test [1] is 4.59 µM; in test [2], approximately 0.53 µM; in test [3], approximately 21.3 µM.
